Several values for one entry are separate records, joined by “and”; a condition that tells them apart may be missing. Equal values may be shown once. Toxic doses and inconclusive results are not listed.
System: CD2F1 mice, ip Colon 26 adenocarcinoma, median survival T/C
Assay: NCI In Vivo Anticancer Drug Screen. Data for tumor model Colon 26 Adenocarcinoma (intraperitoneal) in CD2F1 (CDF1) mice
Conditions: endpoint: median survival time, higher = longer survival
Method: The antitumor activity of compounds was measured in mice bearing transplantable tumors. Survival or tumor size were measured and the results are expressed as the measurement made in the treated group (T) divided by the measurement made in the vehicle treated control group (C). The tumor model used in this assay is Colon 26 Adenocarcinoma (intraperitoneal) in CD2F1 (CDF1) mice

CS(=O)(=O)OCCCNCCCOS(C)(=O)=O
T/C (dose: 18.75 mg/kg/injection, schedule: Q04DX003 (ip), vehicle: saline): 194 % of control | T/C (dose: 37.5 mg/kg/injection, schedule: Q04DX003 (ip), vehicle: saline): 241 % of control | T/C (dose: 75.0 mg/kg/injection, schedule: Q04DX003 (ip), vehicle: saline): 338 % of control | T/C (dose: 150.0 mg/kg/injection, schedule: Q04DX003 (ip), vehicle: saline): 338 % of control

Oc1ccc(C2CCCCC2)cc1CN1CCCCC1
T/C (dose: 3.12 mg/kg/injection, schedule: Q04DX003 (ip), vehicle: saline): 112 % of control | T/C (dose: 6.25 mg/kg/injection, schedule: Q04DX003 (ip), vehicle: saline): 114 % of control | T/C (dose: 12.5 mg/kg/injection, schedule: Q04DX003 (ip), vehicle: saline): 112 % of control | T/C (dose: 25.0 mg/kg/injection, schedule: Q04DX003 (ip), vehicle: saline): 104 % of control | T/C (dose: 50.0 mg/kg/injection, schedule: Q04DX003 (ip), vehicle: saline): 115 % of control | T/C (dose: 100.0 mg/kg/injection, schedule: Q04DX003 (ip), vehicle: saline): 120 % of control

Oc1cc2c3c(c1)c1cc4c(cc1c[n+]3CC2)OCO4
T/C (dose: 6.25 mg/kg/injection, schedule: Q04DX003 (ip), vehicle: distilled water + Tween-80): 118 % of control | T/C (dose: 100.0 mg/kg/injection, schedule: Q04DX003 (ip), vehicle: distilled water + Tween-80): 118 % of control

O=c1[nH]c(=O)n(C2CC(O)C(CO)O2)cc1F (stereo not drawn)
T/C (dose: 80.0 mg/kg/injection, schedule: Q07DX003 (ip), vehicle: saline): 155 % of control | T/C (dose: 120.0 mg/kg/injection, schedule: Q07DX003 (ip), vehicle: saline): 161 % of control and 171 % of control | T/C (dose: 190.0 mg/kg/injection, schedule: Q07DX003 (ip), vehicle: saline): 150 % of control and 167 % of control | T/C (dose: 280.0 mg/kg/injection, schedule: Q07DX003 (ip), vehicle: saline): 167 % of control and 169 % of control

CN(C)CCCNc1cccc2c1C(=O)c1cccc(NCCCN(C)C)c1C2=O
T/C (dose: 8.0 mg/kg/injection, schedule: Q01DX009 (ip), vehicle: saline): 106 % of control | T/C (dose: 16.0 mg/kg/injection, schedule: Q01DX009 (ip), vehicle: saline): 100 % of control | T/C (dose: 32.0 mg/kg/injection, schedule: Q01DX009 (ip), vehicle: saline): 87 % of control

N[C@@H](Cc1ccc(N(CCCl)CCCl)cc1)C(=O)O
T/C (dose: 1.0 mg/kg/injection, schedule: Q04DX002 (ip), vehicle: suspension in saline): 162 % of control | T/C (dose: 1.25 mg/kg/injection, schedule: Q04DX003 (ip), vehicle: saline): 175 % of control | T/C (dose: 2.0 mg/kg/injection, schedule: Q04DX002 (ip), vehicle: suspension in saline): 231 % of control | T/C (dose: 2.5 mg/kg/injection, schedule: Q04DX003 (ip), vehicle: suspension in saline): 181 % of control | T/C (dose: 4.0 mg/kg/injection, schedule: Q04DX002 (ip), vehicle: suspension in saline): 249 % of control | T/C (dose: 5.0 mg/kg/injection, schedule: Q04DX003 (ip), vehicle: suspension in saline): 186 % of control | T/C (dose: 8.0 mg/kg/injection, schedule: Q04DX002 (ip), vehicle: suspension in saline): 277 % of control | T/C (dose: 10.0 mg/kg/injection, schedule: Q04DX003 (ip), vehicle: suspension in saline): 182 % of control | T/C (dose: 16.0 mg/kg/injection, schedule: Q04DX002 (ip), vehicle: suspension in saline): 226 % of control | T/C (dose: 20.0 mg/kg/injection, schedule: Q04DX003 (ip), vehicle: suspension in saline): 216 % of control

Clc1ccc(C2SC=Cc3ccccc32)cc1 (stereo not drawn)
T/C (dose: 3.12 mg/kg/injection, schedule: Q04DX002 (ip), vehicle: Klucel (hydroxypropylcellulose) (HPC)): 105 % of control | T/C (dose: 25.0 mg/kg/injection, schedule: Q04DX003 (ip), vehicle: Klucel (hydroxypropylcellulose) (HPC)): 99 % of control | T/C (dose: 50.0 mg/kg/injection, schedule: Q04DX003 (ip), vehicle: Klucel (hydroxypropylcellulose) (HPC)): 103 % of control | T/C (dose: 62.5 mg/kg/injection, schedule: Q04DX002 (ip), vehicle: Klucel (hydroxypropylcellulose) (HPC)): 100 % of control | T/C (dose: 100.0 mg/kg/injection, schedule: Q04DX003 (ip), vehicle: Klucel (hydroxypropylcellulose) (HPC)): 97 % of control | T/C (dose: 125.0 mg/kg/injection, schedule: Q04DX002 (ip), vehicle: Klucel (hydroxypropylcellulose) (HPC)): 98 % of control | T/C (dose: 200.0 mg/kg/injection, schedule: Q04DX003 (ip), vehicle: Klucel (hydroxypropylcellulose) (HPC)): 105 % of control | T/C (dose: 250.0 mg/kg/injection, schedule: Q04DX002 (ip), vehicle: Klucel (hydroxypropylcellulose) (HPC)): 96 % of control | T/C (dose: 500.0 mg/kg/injection, schedule: Q04DX002 (ip), vehicle: Klucel (hydroxypropylcellulose) (HPC)): 100 % of control

From PubChem BioAssay AID210 (DTP/NCI, 2004)
